Data as given in patent publication US20260102501A1, “ANTI-CANCER NUCLEAR HORMONE RECEPTOR-TARGETING COMPOUNDS” (Nuvation Bio Inc., priority 2022, published 2026).

What was measured:
LNCap cells = experiment: Cell viability assay (CellTiterGlo); format: cell-based; conditions: Homo sapiens, 144 h, read-out: LNCap (IC50, nM)
T47D cells = experiment: Cell viability assay (CellTiterGlo); format: cell-based; conditions: Homo sapiens, 144 h, read-out: T47D (IC50, nM)
[1] = biological target: T1, Progesterone Receptor (PR)-LBD and coactivator peptide (Homo sapiens, UniProt P06401); experiment: PR coactivator antagonist assay; conditions: 2.5 nM PR-LBD, 10 nM progesterone-induced fluorescence response
T1 sequence (P06401 679-913 limits assumed): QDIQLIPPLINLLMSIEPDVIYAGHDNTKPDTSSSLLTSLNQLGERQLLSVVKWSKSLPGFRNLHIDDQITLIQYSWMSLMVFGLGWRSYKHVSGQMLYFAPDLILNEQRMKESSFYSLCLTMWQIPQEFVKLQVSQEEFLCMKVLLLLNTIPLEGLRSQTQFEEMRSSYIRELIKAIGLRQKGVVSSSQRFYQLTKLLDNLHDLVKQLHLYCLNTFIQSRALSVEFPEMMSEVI

IEC6 cells = experiment: Cell viability assay (CellTiterGlo); conditions: Rattus norvegicus, IEC-6, 144 h, read-out: IEC-6 (IC50, nM)
[2] = biological target: T2, AR (cytosol from LnCaP cells) (Homo sapiens, UniProt P10275, T878A); experiment: AR binding assay (3H-R1881 displacement)
T2 sequence (P10275 1-920 T878A): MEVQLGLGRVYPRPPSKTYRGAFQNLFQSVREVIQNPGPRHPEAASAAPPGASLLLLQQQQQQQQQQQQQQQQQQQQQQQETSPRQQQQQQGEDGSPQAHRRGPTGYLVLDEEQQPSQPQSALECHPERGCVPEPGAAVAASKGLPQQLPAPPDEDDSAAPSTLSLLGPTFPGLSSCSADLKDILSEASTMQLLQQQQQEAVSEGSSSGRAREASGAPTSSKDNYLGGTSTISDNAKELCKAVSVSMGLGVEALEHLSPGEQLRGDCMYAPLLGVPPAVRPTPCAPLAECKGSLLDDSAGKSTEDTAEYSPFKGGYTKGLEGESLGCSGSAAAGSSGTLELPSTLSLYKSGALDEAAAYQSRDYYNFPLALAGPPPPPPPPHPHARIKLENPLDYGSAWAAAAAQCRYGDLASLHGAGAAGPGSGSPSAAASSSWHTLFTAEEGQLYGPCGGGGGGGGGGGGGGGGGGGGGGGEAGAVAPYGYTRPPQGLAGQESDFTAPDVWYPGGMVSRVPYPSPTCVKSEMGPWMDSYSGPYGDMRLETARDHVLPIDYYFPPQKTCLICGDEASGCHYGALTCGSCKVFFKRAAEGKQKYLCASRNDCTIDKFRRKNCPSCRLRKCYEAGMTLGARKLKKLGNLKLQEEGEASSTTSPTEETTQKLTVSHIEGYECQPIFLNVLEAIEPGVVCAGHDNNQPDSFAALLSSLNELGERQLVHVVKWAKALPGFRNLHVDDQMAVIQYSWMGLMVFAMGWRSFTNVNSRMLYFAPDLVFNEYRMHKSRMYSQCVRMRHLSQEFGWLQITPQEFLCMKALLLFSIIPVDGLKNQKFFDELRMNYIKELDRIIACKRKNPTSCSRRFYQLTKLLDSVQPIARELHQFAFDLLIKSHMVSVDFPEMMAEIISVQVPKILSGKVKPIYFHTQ
Protocol: The plate was then centrifuged at 3000 rpm for 30 minutes at 4° C.

[3] = biological target: T3, ligand binding domain of the glucocorticoid receptor (HEK293 cells stably expressing) (Homo sapiens, UniProt P04150); experiment: GR antagonism assay (luciferase reporter)
T3 sequence (P04150 524-758 limits assumed): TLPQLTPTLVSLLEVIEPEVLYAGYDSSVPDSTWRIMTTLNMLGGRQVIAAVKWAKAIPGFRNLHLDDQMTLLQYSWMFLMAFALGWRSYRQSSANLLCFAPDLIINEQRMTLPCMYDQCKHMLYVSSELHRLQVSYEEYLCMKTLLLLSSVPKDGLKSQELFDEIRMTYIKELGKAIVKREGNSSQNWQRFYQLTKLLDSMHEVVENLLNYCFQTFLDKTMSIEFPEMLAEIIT
Protocol: HEK293 cells stably expressing the ligand binding domain of the glucocorticoid receptor were seeded at a density of 40000 cells/well in the assay plate. The assay plate was then incubated at 37° C., 5% CO2 for 30 minutes. Dexamethasone was added to the assay plate at 1.5 nM final concentration and the assay plate incubated at 37° C., 5% CO2 for 20 h. After the incubation period, Dual-glo luciferase reagent was added to the assay plate and mixed at room temperature for 20 minutes on an orbital shaker, before reading out on the En Vision plate reader. 50 μL of Stop & Glo reagent was added to assay plate, mixed at room temperature for 20 minutes, and read on the Envision plate reader.

[4] = biological target: T4, GR (cytosol from IM-9 cells) (Homo sapiens, UniProt P04150); experiment: GR binding assay (3H-Dexamethasone displacement)
T4 sequence (P04150 1-777): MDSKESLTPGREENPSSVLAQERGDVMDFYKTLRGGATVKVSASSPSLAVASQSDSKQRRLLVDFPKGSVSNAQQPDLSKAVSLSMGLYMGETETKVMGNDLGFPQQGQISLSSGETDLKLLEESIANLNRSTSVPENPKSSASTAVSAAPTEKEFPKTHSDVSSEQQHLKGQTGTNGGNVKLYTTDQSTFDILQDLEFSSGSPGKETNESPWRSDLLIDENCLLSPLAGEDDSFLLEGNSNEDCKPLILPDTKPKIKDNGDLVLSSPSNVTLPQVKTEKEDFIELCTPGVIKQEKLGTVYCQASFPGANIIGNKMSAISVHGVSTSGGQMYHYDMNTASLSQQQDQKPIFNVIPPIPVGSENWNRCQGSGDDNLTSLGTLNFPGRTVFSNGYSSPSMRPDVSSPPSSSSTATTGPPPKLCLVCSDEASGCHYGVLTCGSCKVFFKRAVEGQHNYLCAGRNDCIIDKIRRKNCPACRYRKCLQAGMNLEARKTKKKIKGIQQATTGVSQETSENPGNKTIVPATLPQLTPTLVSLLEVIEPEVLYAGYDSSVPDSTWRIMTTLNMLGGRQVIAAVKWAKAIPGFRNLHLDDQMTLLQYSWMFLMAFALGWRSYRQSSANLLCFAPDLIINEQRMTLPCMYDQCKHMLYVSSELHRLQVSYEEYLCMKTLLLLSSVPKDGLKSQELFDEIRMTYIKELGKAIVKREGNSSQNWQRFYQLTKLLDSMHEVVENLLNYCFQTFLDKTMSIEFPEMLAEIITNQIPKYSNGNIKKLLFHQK

[5] = biological target: T5, Progesterone PR-B receptors from human breast carcinoma T47D cells (Homo sapiens, UniProt P06401); experiment: PR binding assay ([3H] Progesterone displacement)
T5 sequence (P06401 1-933): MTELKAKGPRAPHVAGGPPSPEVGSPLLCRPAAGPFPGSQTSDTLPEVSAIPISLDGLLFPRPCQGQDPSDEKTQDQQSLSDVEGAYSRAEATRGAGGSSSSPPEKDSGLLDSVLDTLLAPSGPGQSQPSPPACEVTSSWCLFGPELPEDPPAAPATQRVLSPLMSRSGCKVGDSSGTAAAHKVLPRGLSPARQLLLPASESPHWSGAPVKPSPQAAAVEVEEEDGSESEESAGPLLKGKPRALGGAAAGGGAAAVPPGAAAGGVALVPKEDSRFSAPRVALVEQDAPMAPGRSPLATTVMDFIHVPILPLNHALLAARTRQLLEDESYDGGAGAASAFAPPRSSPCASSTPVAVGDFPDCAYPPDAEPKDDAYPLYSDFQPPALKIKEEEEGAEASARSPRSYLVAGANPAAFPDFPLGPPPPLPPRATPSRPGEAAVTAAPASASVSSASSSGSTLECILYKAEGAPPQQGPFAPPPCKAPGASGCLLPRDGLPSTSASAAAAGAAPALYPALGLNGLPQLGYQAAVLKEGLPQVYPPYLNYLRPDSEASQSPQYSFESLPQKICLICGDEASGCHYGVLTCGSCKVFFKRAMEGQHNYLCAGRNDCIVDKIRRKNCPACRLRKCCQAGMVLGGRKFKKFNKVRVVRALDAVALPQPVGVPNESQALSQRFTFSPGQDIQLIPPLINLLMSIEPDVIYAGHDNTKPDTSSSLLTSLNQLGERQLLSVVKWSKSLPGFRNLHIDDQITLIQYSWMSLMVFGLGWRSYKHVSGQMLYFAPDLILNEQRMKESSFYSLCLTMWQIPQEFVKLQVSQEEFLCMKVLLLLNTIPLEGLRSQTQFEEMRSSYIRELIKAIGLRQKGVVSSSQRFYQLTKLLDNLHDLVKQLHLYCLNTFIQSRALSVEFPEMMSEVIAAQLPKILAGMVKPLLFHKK

Compound | IC50 (LNCap cells) [nM] | IC50 (T47D cells) [nM] | PR antagonism [1] | IC50 (IEC6 cells) [nM] | IC50 [2] [µM] | IC50 [3] [µM] | IC50 [4] [µM] | IC50 [5] [µM]
CC[C@@]1(O)C(=O)OCc2c1cc1n(c2=O)Cc2cc3c(CN(C)C)c(OC(=O)N4CCN(CCCCCN(C)c5ccc([C@H]6C[C@@]7(C)[C@@H](CC[C@]7(OC(C)=O)C(C)=O)[C@@H]7CCC8=CC(=O)CCC8=C76)cc5)CC4)ccc3nc2-1 [Compound 8, (S)-10-((Dimethylamino)methyl)-4-ethyl-4-hydroxy-3,14-dioxo-3,4,12,14-tetrahydro-1H-pyrano[3′,4′:6,7]indolizino[1,2-b]quinolin-9-yl 4-(5-((4-((8S,11R,13S,14S,17R)-17-acetoxy-17-acetyl-13-methyl-3-oxo-2,3,6,7,8,11,12,13,14,15,16,17-dodecahydro-1H-cyclopenta[a]phenanthren-11-yl)phenyl)(methyl)amino)pentyl)piperazine-1-carboxylate] | 101 to 1000 | 10 to 100 | a (IC50 =< 10 nM) | 101 to 1000 | < 0.01 | 0.01 to 0.1 | 0.01 to 0.1 | < 0.01
CC[C@@]1(OC(=O)CN(C)C)C(=O)OCc2c1cc1n(c2=O)Cc2cc3c(CN(C)C)c(OC(=O)N4CCN(CCCCCCN(C)c5ccc([C@H]6C[C@@]7(C)[C@@H](CC[C@]7(OC(C)=O)C(C)=O)[C@@H]7CCC8=CC(=O)CCC8=C76)cc5)CC4)ccc3nc2-1 [Compound No. 14, (S)-10-((Dimethylamino)methyl)-4-((dimethylglycyl)oxy)-4-ethyl-3,14-dioxo-3,4,12,14-tetrahydro-1H-pyrano[3′,4′:6,7]indolizino[1,2-b]quinolin-9-yl 4-(6-((4-((8S,11R,13S,14S,17R)-17-acetoxy-17-acetyl-13-methyl-3-oxo-2,3,6,7,8,11,12,13,14,15,16,17-dodecahydro-1H-cyclopenta[a]phenanthren-11-yl)phenyl)(methyl)amino)hexyl)piperazine-1-carboxylate] | 101 to 1000 | 10 to 100 | a (IC50 =< 10 nM) | 10 to 100 | 0.01 to 0.1 | 0.01 to 0.1 | < 0.01 | < 0.01
CC[C@@]1(O)C(=O)OCc2c1cc1n(c2=O)Cc2cc3c(CN4CCN(C)CC4)c(OC(=O)N4CCN(CCCCCCN(C)c5ccc([C@H]6C[C@@]7(C)[C@@H](CC[C@]7(OC(C)=O)C(C)=O)[C@@H]7CCC8=CC(=O)CCC8=C76)cc5)CC4)ccc3nc2-1 [Compound 5, (S)-4-Ethyl-4-hydroxy-10-((4-methylpiperazin-1-yl)methyl)-3,14-dioxo-3,4,12,14-tetrahydro-1H-pyrano[3′,4′:6,7]indolizino[1,2-b]quinolin-9-yl 4-(6-((4-((8S,11R,13S,14S,17R)-17-acetoxy-17-acetyl-13-methyl-3-oxo-2,3,6,7,8,11,12,13,14,15,16,17-dodecahydro-1H-cyclopenta[a]phenanthren-11-yl)phenyl)(methyl)amino)hexyl)piperazine-1-carboxylate] | 101 to 1000 | 101 to 1000 | a (IC50 =< 10 nM) | > 1000 | 0.01 to 0.1 | 0.01 to 0.1 | < 0.01 | < 0.01
CC[C@@]1(O)C(=O)OCc2c1cc1n(c2=O)Cc2cc3c(CN(C)C)c(OC(=O)N4CCN(CCCCCCCCN(C)c5ccc([C@H]6C[C@@]7(C)[C@@H](CC[C@]7(OC(C)=O)C(C)=O)[C@@H]7CCC8=CC(=O)CCC8=C76)cc5)CC4)ccc3nc2-1 [Compound 7, (S)-10-((Dimethylamino)methyl)-4-ethyl-4-hydroxy-3,14-dioxo-3,4,12,14-tetrahydro-1H-pyrano[3′,4′:6,7]indolizino[1,2-b]quinolin-9-yl 4-(8-((4-((8S,11R,13S,14S,17R)-17-acetoxy-17-acetyl-13-methyl-3-oxo-2,3,6,7,8,11,12,13,14,15,16,17-dodecahydro-1H-cyclopenta[a]phenanthren-11-yl)phenyl)(methyl)amino)octyl)piperazine-1-carboxylate] | 101 to 1000 | 101 to 1000 | a (IC50 =< 10 nM) | > 1000 | 0.01 to 0.1 | 0.01 to 0.1 | < 0.01 | < 0.01
